Data taken from patent publication US20120225417A1, “Methods, Compositions and Kits for the Evaluation and Preservation of Sperm” (I'Alliance Boviteq Inc., priority 2011, published 2012).

Experiments:
[1] = test system: 3′-5′ cAMP-PDE activity in bovine testis, caput, cauda and seminal vesicles homogenates; assay: 3′-5′ cAMP-PDE assay in bovine testis, caput, cauda and seminal vesicles homogenates; assay type: biochemical; conditions: Rol 10 μM, Papa 400 nM (FIG. 3)
Protocol: After thoroughly vortex-agitating for about one minute, samples were centrifuged at 10 000×g for 4 minutes at room temperature. Supernatant fluid was collected and diluted in different volumes of hypotonic buffer depending on the tissue. Testis, caput and cauda homogenates were diluted in 1 mL of hypotonic buffer while seminal vesicle homogenates were diluted in 2 mL of hypotonic buffer. Homogenates were kept on ice until subjected to PDE assay. The cAMP enzymatic assay (PDE assay) was conducted as previously described ([…]. et al., (2006). BMC developmental biology 6, 47). […] J. et al., (1979). Adv Cyclic Nucleotide Res 10, 69-92) with minor modifications. […] Measurements were also performed in the presence of PDE inhibitors: […] Cilostamide and Rolipram were purchased from Biomol. […] Each PDE assay was performed in triplicate for each experiment and each experiment was repeated at least three times. As described ([…]. et al., (2009). […] IBMX-sensitive PDE5 and PDE6 and IBMX-insensitive PDE9 activities are absent from these groups because cGMP is the specific substrate and then are not detected in the cAMP-PDE assay. […] J Dairy Sci 92, 3757-3765; […]., et al. (2007). Endocrinology 148, 1858-1867; Siuciak, J. A. et al., (2006). Neuropharmacology 51, 386-396).

[2] = test system: 3′-5′ cAMP-PDE activity in bovine spermatozoa; assay: 3′-5′ cAMP-PDE assay with family-specific PDE inhibitors in bovine spermatozoa; assay type: biochemical; conditions: for Percentage of sensitive PDE activity, Cryo (B): cryopreserved bovine spermatozoa; for Percentage of sensitive PDE activity, Cryo (B) / Percentage of sensitive PDE activity, Fresh (A): Cil 10 μM, Rol 10 μM, Papa 400 nM
Protocol: The semen was obtained from different Holstein bulls. The fresh ejaculated semen was kept in an insulated thermos flask, at 18° C., during transportation to the laboratory and processed within 3 hours after collection. The cryopreserved semen was obtained at the Centre d'Insémination […] du Québec (CIAQ) […]. The cryopreserved straws of semen were prepared according to CIAQ procedures. […] After cutting one end of the straw the semen was collected in a 15 ml falcon while cutting the other end. From this point fresh and cryopreserved semen were processed similarly. Approximately 50 μL of the semen was added to 5 mL of Talp-BSA medium in a 15 mL falcon tube to wash the spermatozoa. After centrifugation (280×g, 10 min, room temperature), the remaining pellet of approximately 100 μL was resuspended in Talp-BSA medium (500 μl for the fresh and 200 μl for two straws) to reach a concentration of 1×10^6 cells/10 μL. The samples were then vortex-agitated for 30 sec and kept on the ice until ready to run the assay. The concentration of sperm cells was measured according to hemacytometer method. The cAMP enzymatic assay (PDE assay) was conducted as previously described ([…]. et al., (2006). […] J. et al., (1979). Adv Cyclic Nucleotide Res 10, 69-92) with minor modifications. […] Measurements were also performed in the presence of PDE inhibitors: […] Cilostamide and Rolipram were purchased from Biomol. […] Each PDE assay was performed in triplicate for each experiment and each experiment was repeated at least three times. As described ([…]. et al., (2009). […] IBMX-sensitive PDE5 and PDE6 and IBMX-insensitive PDE9 activities are absent from these groups because cGMP is the specific substrate and then are not detected in the cAMP-PDE assay. […] J Dairy Sci 92, 3757-3765; […]., et al. (2007). Endocrinology 148, 1858-1867; Siuciak, J. A. et al., (2006). Neuropharmacology 51, 386-396).

For COc1ccc(Cc2nccc3cc(OC)c(OC)cc23)cc1OC [Papaverine], the “Inhibitor-sensitive PDE activity in bovine male reproductive tissues (in words)” value [1] was “low percentage”, the “Percentage of family specific sensitive PDE activity, 3 h Egg yolk” value ([2]; bovine spermatozoa after 3 h in egg yolk based cryoprotectant at 18° C.) was 60% and the “Percentage of family specific sensitive PDE activity, 3 h Liquid semen” value ([2]; bovine spermatozoa after 3 h in liquid semen extender at 18° C.) was 56%. The “Percentage of family specific sensitive PDE activity, 3 h 4° C.” value ([2]; bovine spermatozoa after 3 h in seminal plasma at 4° C.) was 60%, the “Percentage of family specific sensitive PDE activity, 3 h 18° C.” value ([2]; bovine spermatozoa after 3 h in seminal plasma at 18° C.) was 59% and the “Percentage of family specific sensitive PDE activity, Fresh” value ([2]; bovine spermatozoa rapidly after ejaculation (0 h)) was 57%. For the same molecule, the “Percentage of total PDE activity sensitive to the inhibitor” value ([2]; bovine spermatozoa, 1 μM cAMP, IBMX 1 mM, cilostamide 10 μM, rolipram 10 μM, papaverine 400 nM (FIG. 12B)) was 55%, the “Percentage of sensitive PDE activity, Cryo (B)” value ([2]; IBMX 1 mM) was 50% and the “Percentage of sensitive PDE activity, Cryo (B)” value ([2]; IBMX 1 mM, listed as papaverine) was 49.8%. The “Share of 3′-5′ cAMP-PDE activity inhibited (papaverine-sensitive)” value ([2]; freshly ejaculated bovine spermatozoa, papaverine 400 nM (FIG. 21)) was “more than 50%”, the “Percentage of sensitive PDE activity, Fresh (A)” value ([2]; freshly ejaculated bovine spermatozoa, IBMX 1 mM) was 57% and the “Percentage of sensitive PDE activity, Fresh (A)” value ([2]; freshly ejaculated bovine spermatozoa, IBMX 1 mM, listed as papaverine) was 57.1%.
